Measurements as given in patent US20170143771A1, “COMPOSITION CONTAINING PSEUDOMONAS AERUGINOSA CULTURE SOLUTION EXTRACT HAVING ANTIBIOTIC AND ANTISEPTIC ACTIVITIES, AND USE THEREOF” (JOINT CENTER FOR BIOSCIENCES, priority 2014, published 2017).

Assays:
Bacillus cereus = experiment: Preservative power test (challenge test), lotion dosage form; format: cell-based; conditions: 0.5%
Method: (§1) In order to investigate the possibility of R1 as a preservative compared with methyl paraben, the preservative power test was conducted by measuring the sterilizing power of a toner dosage form and a lotion dosage form of R1 against gram positive pathogens (Staphylococcus aureus and Bacillus cereus) and gram negative pathogens (Pseudomonas aeruginosa and Escherichia coli). The preservative power test was conducted on the basis of the U.S. Cosmetics, Toiletry, and Fragrance Association (CTFA), and the basis is that a particular material has a possibility as a preservative if the particular material in dosage forms of a toner or lotion kills 99.9% of inoculated bacteria within 7 days.
(§2) R1 and methyl paraben, which were dissolved in methanol, each were added to the toner dosage form, so that the final concentration of each of R1 and the methyl paraben had 0% and 0.5%, and the S. aureus, B. cereus, P. aeruginosa, and C. albicans cultures each were inoculated in each container. The number of inoculated bacterial cells was 106-107 colony forming unit (CFU)/ml. While the bacteria-inoculated lotions were kept at room temperature, each lotion was diluted immediately, one day, three days, five days, and seven days after the inoculation of bacteria, and 200 μl of the lotions inoculated with S. aureus, B. cereus, and P. aeruginosa each were as plated on LB agar plate, and 200 μl of the lotion inoculated with C. albicans was plated on YPD agar plate. The death or not of bacteria was checked by calculating the number of cells and then comparing the calculated number with the number of initially inoculated bacteria. As control, only methanol was added to the lotion dosage form, and the bacteria culture was inoculated, followed by repeated tests.

Candida albicans = experiment: as above; format: cell-based; conditions: 0.5%
Method: as §1, §2

Pseudomonas aeruginosa = experiment: as above; format: cell-based; conditions: 0.5%
Method: as §1, §2

Staphylococcus aureus = experiment: as above; format: cell-based; conditions: 0.5%
Method: as §1, §2

[1] = DPPH scavenging activity test (antioxidative effect); format: biochemical; conditions: concentration of 0.5% or more; 30 minutes, absorbance 517 nm; compared with ascorbic acid (AA)
Method: The color change of the DPPH radical is distinctive as it reacts with a reagent having excellent antioxidative ability. R1, ascorbic acid (AA), and methyl paraben (MTP) each were dissolved at different concentrations in methanol. The thus obtained samples (100 μl) each were dissolved at a concentration of 0.006% in methanol, and mixed with 100 μl of the DPPH radical solution to prepare a total volume of 200 μl, followed by reaction in a light-blocked space for 30 minutes. After completion of the reaction, the absorbance of each mixture was measured at 517 nm to determine antioxidative ability of each sample.

S. aureus = experiment: Antibiotic activity of R1 fractions and rhamnolipids (clear zone on agar plate); format: cell-based, Staphylococcus aureus; conditions: concluded from fraction activity and LC/MS peaks 1 and 2
Method: 1 mg of a mixture state of R1 extracted from a microorganism (P. aeruginosa) culture was dissolved in methanol, and then injected in the sep-Pak vac 1cc tc18 cartridge column. After that, the column was washed with solvent A, and solvent B as a development solvent was injected thereinto. Solvent B with different concentrations was injected into the column, and the fractions passing through the column were collected, and named fraction 1, fraction 2, fraction 3, fraction 4, fraction 5, and fraction 6. The different concentrations of solvent B injected to the column were 50%, 55%, 60%, 65%, 70%, and 75%.
Each of the obtained fractions was dried, and then dissolved at a concentration of 10 mg/ml in methanol. 20 μl of each of the fractions dissolved in methanol was dropped on an agar plate plated with the S. aureus culture, and cultured at 37° C. for 18 hours. After 18 hours, the clear zone generated on the agar plate was observed.

COC(=O)c1ccc(O)cc1 [MTP, methyl paraben]
survival rate of inoculated bacteria (Bacillus cereus; Day 0): 100% | survival rate of inoculated bacteria (Bacillus cereus; Day 1): 0.12% | survival rate of inoculated bacteria (Bacillus cereus; Day 3): 0.06% | survival rate of inoculated bacteria (Bacillus cereus; Day 5): 0.02% | survival rate of inoculated bacteria (Bacillus cereus; Day 7): 0.01% | survival rate of inoculated bacteria (Candida albicans; Day 0): 100% | survival rate of inoculated bacteria (Candida albicans; Day 1): 0% | survival rate of inoculated bacteria (Candida albicans; Day 3): 0% | survival rate of inoculated bacteria (Candida albicans; Day 5): 0% | survival rate of inoculated bacteria (Candida albicans; Day 7): 0% | survival rate of inoculated bacteria (Pseudomonas aeruginosa; Day 0): 100% | survival rate of inoculated bacteria (Pseudomonas aeruginosa; Day 1): 0% | survival rate of inoculated bacteria (Pseudomonas aeruginosa; Day 3): 0% | survival rate of inoculated bacteria (Pseudomonas aeruginosa; Day 5): 0% | survival rate of inoculated bacteria (Pseudomonas aeruginosa; Day 7): 0% | survival rate of inoculated bacteria (Staphylococcus aureus; Day 0): 100% | survival rate of inoculated bacteria (Staphylococcus aureus; Day 1): 0% | survival rate of inoculated bacteria (Staphylococcus aureus; Day 3): 0% | survival rate of inoculated bacteria (Staphylococcus aureus; Day 5): 0% | survival rate of inoculated bacteria (Staphylococcus aureus; Day 7): 0% | antioxidative effect (DPPH scavenging activity) [1]: significantly low antioxidative effect

CCCCCCCC(CC(=O)O)OC(=O)CC(CCCCCCC)O[C@@H]1O[C@@H](C)[C@H](O)[C@@H](O)[C@H]1O (some centres unmarked) [Rha-C10-C10]
active ingredient having antibacterial activity (S. aureus): active ingredients having antibacterial activity

CCCCCCCC(CC(=O)O)OC(=O)CC(CCCCCCC)OC1OC(C)C(O)C(O)C1OC1OC(C)C(O)C(O)C1O (stereo not drawn) [Rha-Rha-C10-C10]
active ingredient having antibacterial activity (S. aureus): active ingredients having antibacterial activity
